{
  "source": "patent US8735414B2",
  "about": "(priority 2009, dated 2014)",
  "data": [
    {"test_system": "bicistronic HCV replicon (replicon RNA, GenBank Accession No. AJ242654)", "assay": "HCV Replicon Assay", "format": "cell-based", "settings": "Hepatitis C virus, 72 h, read-out: Replicon IC50", "units": {"IC50": "nM"}, "values": [
      {"smiles": "COC(=O)c1c(-c2ccc(S(=O)(=O)N[C@@H](C)C(F)(F)F)cn2)n(C2CCC2)c2cc(C)c(F)cc12", "note": "[compound 771, methyl 1-cyclobutyl-5-fluoro-6-methyl-2-(5-{[(2S)-1,1,1-trifluoropropan-2-yl]sulfamoyl}pyridin-2-yl)-1H-indole-3-carboxylate]", "IC50": "< 500"},
      {"smiles": "Cc1ccc2c(C#N)c(-c3ccc(S(=O)(=O)N[C@@H](C)C4CC4)cn3)n(C(C)C)c2c1", "note": "[compound 425, 6-[3-cyano-6-methyl-1-(propan-2-yl)-1H-indol-2-yl]-N-[(1S)-1-cyclopropylethyl]pyridine-3-sulfonamide]", "IC50": "500 to 2000"},
      {"smiles": "COC(=O)c1csc(-n2c(-c3ccc(S(=O)(=O)N[C@@H](C)C(F)(F)F)cn3)c(C#N)c3cc(F)c(C)cc32)n1", "note": "[compound 986, methyl 2-[3-cyano-5-fluoro-6-methyl-2-(5-{[(2S)-1,1,1-trifluoropropan-2-yl]sulfamoyl}pyridin-2-yl)-1H-indol-1-yl]-1,3-thiazole-4-carboxylate]", "IC50": "< 500"},
      {"smiles": "N#Cc1c(-c2ccc(S(=O)(=O)NC(CF)CF)cn2)n(-c2ncccn2)c2ccc(F)cc12", "note": "[compound 608, 6-[3-cyano-5-fluoro-1-(pyrimidin-2-yl)-1H-indol-2-yl]-N-(1,3-difluoropropan-2-yl)pyridine-3-sulfonamide]", "IC50": "< 500"},
      {"smiles": "Cc1cc(NS(=O)(=O)C(C)(C)C)ncc1-c1c(C(=O)O)c2cc(F)c(OC(F)F)cc2n1[C@H](C)C1CC1", "note": "[compound 1086, 2-{6-[(tert-butylsulfonyl)amino]-4-methylpyridin-3-yl}-1-[(1R)-1-cyclopropylethyl]-6-(difluoromethoxy)-5-fluoro-1H-indole-3-carboxylic acid]", "IC50": "< 500"},
      {"smiles": "CCc1cc2c(cc1F)c(C#N)c(-c1ccc(S(=O)(=O)N[C@H](C)C(F)(F)F)cn1)n2-c1ccccn1", "note": "[compound 879, 6-[3-cyano-6-ethyl-5-fluoro-1-(pyridin-2-yl)-1H-indol-2-yl]-N-[(2R)-1,1,1-trifluoropropan-2-yl]pyridine-3-sulfonamide]", "IC50": "< 500"},
      {"smiles": "CCc1cc2c(cc1F)c(C(N)=O)c(-c1ccc(S(=O)(=O)N[C@@H](C)C(F)(F)F)cn1)n2-c1ccc(C)cn1", "note": "[compound 1039, 6-ethyl-5-fluoro-1-(5-methylpyridin-2-yl)-2-(5-{[(2S)-1,1,1-trifluoropropan-2-yl]sulfamoyl}pyridin-2-yl)-1H-indole-3-carboxamide]", "IC50": "500 to 2000"},
      {"smiles": "CCc1cc2c(cc1F)c(C#N)c(-c1ccc(S(=O)(=O)N[C@@H](C)C(F)(F)F)cn1)n2C1=NC=CCN1", "note": "[compound 941, 6-[3-cyano-1-(1,6-dihydropyrimidin-2-yl)-6-ethyl-5-fluoro-1H-indol-2-yl]-N-[(2S)-1,1,1-trifluoropropan-2-yl]pyridine-3-sulfonamide]", "IC50": "500 to 2000"},
      {"smiles": "C[C@H](NS(=O)(=O)c1ccc(-c2c(C#N)c3cc(F)c(OC(F)F)cc3n2C2CCC2)nc1)C(F)(F)F", "note": "[compound 549, 6-[3-cyano-1-cyclobutyl-6-(difluoromethoxy)-5-fluoro-1H-indol-2-yl]-N-[(2S)-1,1,1-trifluoropropan-2-yl]pyridine-3-sulfonamide]", "IC50": "< 500"},
      {"smiles": "CCc1cc2c(cc1F)c(C#N)c(-c1ccc(NS(=O)(=O)C(C)(C)C)nc1)n2[C@@H](C)C1CC1", "note": "[compound 1082, N-(5-{3-cyano-1-[(1S)-1-cyclopropylethyl]-6-ethyl-5-fluoro-1H-indol-2-yl}pyridin-2-yl)-2-methylpropane-2-sulfonamide]", "IC50": "< 500"},
      {"smiles": "CCc1cc2c(cc1F)c(C#N)c(-c1ccc(S(=O)(=O)N[C@@H](C)C(F)(F)F)cn1)n2-c1ccccn1", "note": "[compound 778, 6-[3-cyano-6-ethyl-5-fluoro-1-(pyridin-2-yl)-1H-indol-2-yl]-N-[(2S)-1,1,1-trifluoropropan-2-yl]pyridine-3-sulfonamide]", "IC50": "< 500"},
      {"smiles": "Cc1cc2c(cc1F)c(C#N)c(-c1ccc(S(=O)(=O)N[C@@H](C)C(F)(F)F)cn1)n2-c1ncccn1", "note": "[compound 634, 6-[3-cyano-5-fluoro-6-methyl-1-(pyrimidin-2-yl)-1H-indol-2-yl]-N-[(2S)-1,1,1-trifluoropropan-2-yl]pyridine-3-sulfonamide]", "IC50": "< 500"},
      {"smiles": "CCS(=O)(=O)Nc1ccc(-c2c(C#N)c3ccc(OCC(F)(F)F)cc3n2CC2CC2)cn1", "note": "[compound 290, N-{5-[3-cyano-1-(cyclopropylmethyl)-6-(2,2,2-trifluoroethoxy)-1H-indol-2-yl]pyridin-2-yl}ethanesulfonamide]", "IC50": "2000 to 5000"},
      {"smiles": "CCc1cc2c(cc1F)c(C(N)=O)c(-c1ccc(S(=O)(=O)N[C@@H](C)C(F)(F)F)cn1)n2-c1ccc(Cl)cn1", "note": "[compound 1043, 1-(5-chloropyridin-2-yl)-6-ethyl-5-fluoro-2-(5-{[(2S)-1,1,1-trifluoropropan-2-yl]sulfamoyl}pyridin-2-yl)-1H-indole-3-carboxamide]", "IC50": "< 500"},
      {"smiles": "CC(C)(NS(=O)(=O)c1ccc(-c2c(C#N)c3ccc(C4CC4)cc3n2-c2ccccn2)nc1)C(F)(F)F", "note": "[compound 584, 6-[3-cyano-6-cyclopropyl-1-(pyridin-2-yl)-1H-indol-2-yl]-N-(1,1,1-trifluoro-2-methylpropan-2-yl)pyridine-3-sulfonamide]", "IC50": "500 to 2000"},
      {"smiles": "Cc1c(F)c(OC(F)F)cc2c1c(C#N)c(-c1ccc(S(=O)(=O)N[C@@H](C)C(F)(F)F)cn1)n2C1CCC1", "note": "[compound 810, 6-[3-cyano-1-cyclobutyl-6-(difluoromethoxy)-5-fluoro-4-methyl-1H-indol-2-yl]-N-[(2S)-1,1,1-trifluoropropan-2-yl]pyridine-3-sulfonamide]", "IC50": "< 500"},
      {"smiles": "C[C@H](NS(=O)(=O)c1ccc(-c2cc3cc(F)c(OC(F)F)cc3n2C2CCC2)nc1)C(F)(F)F", "note": "[compound 727, 6-[1-cyclobutyl-6-(difluoromethoxy)-5-fluoro-1H-indol-2-yl]-N-[(2S)-1,1,1-trifluoropropan-2-yl]pyridine-3-sulfonamide]", "IC50": "< 500"},
      {"smiles": "Cc1ccc2c(C#N)c(-c3ccc(S(=O)(=O)N[C@@H](C)C(F)(F)F)cn3)n(-c3ccccc3)c2c1", "note": "[compound 440, 6-(3-cyano-6-methyl-1-phenyl-1H-indol-2-yl)-N-[(2S)-1,1,1-trifluoropropan-2-yl]pyridine-3-sulfonamide]", "IC50": "< 500"},
      {"smiles": "CC(C)NS(=O)(=O)c1ccc(-c2c(C#N)c3cc(Cl)ccc3n2C2CCC2)cn1", "note": "[compound 28, 5-(5-chloro-3-cyano-1-cyclobutyl-1H-indol-2-yl)-N-(propan-2-yl)pyridine-2-sulfonamide]", "IC50": "2000 to 5000"},
      {"smiles": "Cc1cc2c(cc1F)cc(-c1ccc(S(=O)(=O)N[C@@H](C)C(F)(F)F)cn1)n2-c1cncs1", "note": "[compound 959, 6-[5-fluoro-6-methyl-1-(1,3-thiazol-5-yl)-1H-indol-2-yl]-N-[(2S)-1,1,1-trifluoropropan-2-yl]pyridine-3-sulfonamide]", "IC50": "< 500"},
      {"smiles": "Cc1ccc2c(C#N)c(-c3ccc(S(=O)(=O)NC(CF)CF)cn3)n(C3CCC3)c2c1", "note": "[compound 82, 6-(3-cyano-1-cyclobutyl-6-methyl-1H-indol-2-yl)-N-(1,3-difluoropropan-2-yl)pyridine-3-sulfonamide]", "IC50": "< 500"},
      {"smiles": "CCc1cc2c(cc1F)c(C(N)=O)c(-c1ccc(S(=O)(=O)N[C@@H](C)C(F)(F)F)cn1)n2-c1cncc(Cl)c1", "note": "[compound 1044, 1-(5-chloropyridin-3-yl)-6-ethyl-5-fluoro-2-(5-{[(2S)-1,1,1-trifluoropropan-2-yl]sulfamoyl}pyridin-2-yl)-1H-indole-3-carboxamide]", "IC50": "< 500"},
      {"smiles": "N#Cc1c(-c2ncc(S(=O)(=O)NC(CF)CF)cn2)n(C2CCC2)c2ccc(C(F)F)cc12", "note": "[compound 379, 2-[3-cyano-1-cyclobutyl-5-(difluoromethyl)-1H-indol-2-yl]-N-(1,3-difluoropropan-2-yl)pyrimidine-5-sulfonamide]", "IC50": "< 500"},
      {"smiles": "CC(C)(C)S(=O)(=O)Nc1ccc(-c2c(C(=O)O)c3cc(F)c(OC(F)F)cc3n2C2CCCCC2)cn1", "note": "[compound 1064, 2-{6-[(tert-butylsulfonyl)amino]pyridin-3-yl}-1-cyclohexyl-6-(difluoromethoxy)-5-fluoro-1H-indole-3-carboxylic acid]", "IC50": "< 500"},
      {"smiles": "Cc1cc2c(cc1F)c(C#N)c(-c1ccc(S(=O)(=O)N[C@H](C)C(F)(F)F)cn1)n2C1CCOCC1", "note": "[compound 749, 6-[3-cyano-5-fluoro-6-methyl-1-(tetrahydro-2H-pyran-4-yl)-1H-indol-2-yl]-N-[(2R)-1,1,1-trifluoropropan-2-yl]pyridine-3-sulfonamide]", "IC50": "< 500"},
      {"smiles": "C[C@H](NS(=O)(=O)c1ccc(-c2c(C#N)c3cc(F)ccc3n2C2CCC2)nc1)C(F)(F)F", "note": "[compound 434, 6-(3-cyano-1-cyclobutyl-5-fluoro-1H-indol-2-yl)-N-[(2S)-1,1,1-trifluoropropan-2-yl]pyridine-3-sulfonamide]", "IC50": "< 500"},
      {"smiles": "CC(=O)c1cc2c(cc1F)c(C(C)=O)c(-c1ccc(S(=O)(=O)NC(C)(C)C)cn1)n2-c1ncccn1", "note": "[compound 939, N-tert-butyl-6-(3,6-diacetyl-5-fluoro-1-(pyrimidin-2-yl)-1H-indol-2-yl)pyridine-3-sulfonamide]", "IC50": "2000 to 5000"},
      {"smiles": "C[C@H](NS(=O)(=O)c1ccc(-c2c(C#N)c3cc(Cl)ccc3n2C2CCCC2)nc1)C1CC1", "note": "[compound 118, 6-(5-chloro-3-cyano-1-cyclopentyl-1H-indol-2-yl)-N-[(1S)-1-cyclopropylethyl]pyridine-3-sulfonamide]", "IC50": "< 500"},
      {"smiles": "C[C@@H](NS(=O)(=O)c1ccc(-c2c(C#N)c3ccc(F)cc3n2C2CCCCC2)nc1)C(F)(F)F", "note": "[compound 252, 6-(3-cyano-1-cyclohexyl-6-fluoro-1H-indol-2-yl)-N-[(2R)-1,1,1-trifluoropropan-2-yl]pyridine-3-sulfonamide]", "IC50": "< 500"},
      {"smiles": "CCc1cc2c(cc1F)c(C(N)=O)c(-c1ccc(S(=O)(=O)N[C@@H](C)C(F)(F)F)cn1)n2-c1ncccc1Cl", "note": "[compound 1042, 1-(3-chloropyridin-2-yl)-6-ethyl-5-fluoro-2-(5-{[(2S)-1,1,1-trifluoropropan-2-yl]sulfamoyl}pyridin-2-yl)-1H-indole-3-carboxamide]", "IC50": "500 to 2000"},
      {"smiles": "CC(C)(C)NS(=O)(=O)c1ccc(-c2c(C#N)c3cc(F)ccc3n2-c2ncccn2)nc1", "note": "[compound 823, N-tert-butyl-6-[3-cyano-5-fluoro-1-(pyrimidin-2-yl)-1H-indol-2-yl]pyridine-3-sulfonamide]", "IC50": "500 to 2000"}
    ]}
  ]
}
